Measurements: US5885968A, “Triantennary cluster glycosides, their preparation and use” (Rijksuniversiteit te Leiden, priority 1992, dated 1999)

What was measured:
[1] = test system: rats; experiment: Serum cholesterol lowering after intravenous injection in rats; assay type: in vivo, rat
Protocol: This was verified as follows. Male rats (250-300 g) were anesthetized by means of ether, whereafter 500 gl PBS, having dissolved therein 0.56 mg, 0.18 mg, 0.056 mg or 0 mg TG(20 Å)-chol (formula 20) or 0.56 mg tris-glu-chol (formula 21): [drawing 19] was injected into the vena penis. At the times indicated in FIG. 3, blood samples of 300 μl were taken by means of orbital puncture. The blood samples were centrifuged (5 min; 1500 g) and the serum was used for a cholesterol assay by means of the CHOD-PAP kit of Boehringer Mannheim. 24 Hours after injection the rat was bled. The blood was centrifuged whereafter the serum was pipeted. Then the serum was subjected to gradient density ultracentrifugation and the various lipoprotein fractions were isolated: HDL (1.21<d<1.05), LDL (1.050<d<1.019), IDL (1.019<d<1.006) and VLDL (d<1.006). Finally, the total cholesterol concentrations of these lipoprotein fractions were assayed by means of the CHOD-PAP kit.

[2] = test system: rats; experiment: In vivo behaviour of LDL charged with glycolipid after intravenous injection into rats; set-up: species or system rat
Source text: The so prepared compound TG(20 Å)-chol (formula 20): [drawing 22] can also be used to direct LDL to the hepatic parenchymal cell. To investigate this, isolated low-density lipoprotein was charged with TG(20 Å)-chol according to a procedure that is known per se and the in vivo behaviour of the particle was studied. […] This then leads to a stabilization of the LDL level in the bloodstream after a few minutes. Accumulation of TG(20 Å)-chol in LDL, then, changes the physiological rate of LDL. The complex is taken up by the liver via a galactose-specific route. […] Now it can be verified whether the complex is taken up by the parenchymal or by the Kupffer cell on the liver. […] This is an indication that charging with this compound leads to liver uptake via the asialoglycoprotein receptor in the parenchymal cell.

[3] = test system: rats; experiment: In vivo fate of lipoprotein (a) charged with glycolipid in rats; set-up: species or system rat
Source text: The so prepared TG(20 Å)-chol (formula 20): [drawing 24] can also be used to direct apo(a) to the hepatic parenchymal cell. High levels of lp(a) are correlated with the occurence of coronary and vascular diseases. To date, an adequate clinical therapy to alleviate the pathogenesis is not available. To investigate whether TG(20 Å)C can be used to stimulate the hepatic uptake and processing of lp(a) this, isolated lp(a) was charged with TG(20 Å)-chol according to a procedure that is known per se and the in vivo behaviour of the particle was studied. Lp(a) (50 μg) in PBS was incubated at 20° C. for 30 min with 0, 5, 15 and 50 μg TG(20 Å) (-chol). This charge led to a changed behaviour of the apo(a) after intravenous injection into rats. This is illustrated in FIG. 8. […] On account of the high […] of TG(20 Å)-chol, very rapidly an exchange of this compound occurs between lp(a) and other lipoproteins and lipid compartments. This then leads to a stabilization of the lp(a) level in the bloodstream after a few minutes.
^125 I-Lp(a) (50 μg) was mixed with 50 μg of TG(20 Å)C or TG(4 Å)C in 500 μl PBS. After 30 min at room temperature, the mixtures were injected into rats at a dose of 50 μg of apolipoprotein/kg body weight. Ten minutes after injection, parenchymal, endothelial and Kupffer cells were isolated from the liver and counted for radioactivity. Values are expressed as 10-3.% of the injected dose per mg of cellular protein and are means of 3 experiments ± s.e.m.

[4] = test system: rats; experiment: Biliary secretion in catheterized rats after intravenous injection; assay type: in vivo, rat; details: 0.56 mg i.v., FIG. 5
Protocol: Intravenous injection of TG(20 Å)C (0.56 mg, dissolved in phosphate buffered saline) in rats, provided with catheters in duodenum, bile-duct and heart vene, also enhances the biliary secretion of bile acids from the liver leaving the biliary flow and the biliary secretion of cholesterol unaltered. Apparently, the TG(20 Å)C-induced increase in the uptake of lipoprotein-derived cholesterol is efficiently coupled to bile-acid secretion in rats. This might have important implications for potential application of TG(20 Å)C as a hypocholesterolemic therapeutic. (See FIG. 5.)

[5] = 125I-Lp(a) 50 μg + 50 μg glycolipid, rats, 10 min after injection, mean ± s.e.m., 3 experiments

`CC(C)CCC[C@@H](C)[C@H]1CC[C@H]2[C@@H]3CC=C4C[C@@H](OC(=O)CNC(=O)CCCCC(=O)NCC(=O)NC(COCOCCOCCOCCOCCO[C@@H]5O[C@H](CO)[C@H](O)[C@H](O)[C@H]5O)(COCOCCOCCOCCOCCO[C@@H]5O[C@H](CO)[C@H](O)[C@H](O)[C@H]5O)COCOCCOCCOCCOCCO[C@@H]5O[C@H](CO)[C@H](O)[C@H](O)[C@H]5O)CC[C@]4(C)[C@H]3CC[C@]12C` [TG(20 Å)-chol, N,N-[tris-O-(3,6,9-trioxaundecanyl-β-D-galactopyranosyl)methoxymethyl]methyl-N^α -(1-(6-(5-cholesten-3β-yloxy)glycyl)adipyl)glycinamide] was tested, and the “Cholesterol level 24 hours after single administration” value ([1]; 0.56 mg, 24 hours) was “has not returned to the control value”, the LDL level ([1]; 24 h after injection) was “likewise lowered” and the “Concentrations of the other lipoproteins” value ([1]; 24 h after injection (IDL, VLDL)) was “not significantly affected”. For the same molecule, the “Serum HDL level” value ([1]; 24 h after injection, FIG. 4) was “decreases dose-dependently and significantly”, the “Total serum cholesterol level” value ([1]; injection into vena penis, 0.056-0.56 mg, FIG. 3) was “decreases” and the “Increase in potency compared with tris-gal-chol” value ([1]; serum cholesterol lowering, comparison with ref 15) was ≥ 25 factor. For the same molecule, the “Effect of asialofetuin preinjection on uptake of charged LDL” value ([2]; 50 mg/kg asialofetuin 1 min before injection) was “significant inhibition of the uptake by the liver parenchymal cell”, the “Clearance from bloodstream and liver uptake of charged 125I-LDL” value ([2]; LDL 50 μg charged with 5, 15, 50 μg, i.v. rats, FIG. 6) was “cleared and incorporated into the liver much faster” and the “Liver cell type location of charged LDL taken up” value ([2]; rats, FIG. 7) was “largely located in the parenchymal cell”. The “Effect of N-acetyl-galactosamine preinjection on induced hepatic uptake of 125I-lp(a)” value ([3]; 150 mg N-acetyl-galactosamine, rat, data not shown) was “can be inhibited”, the “Contribution to hepatic uptake of Lp(a), EC (endothelial cells)” value [3, 5] was 8.3 ± 2% and the “Contribution to hepatic uptake of Lp(a), KC (Kupffer cells)” value [3, 5] was 37.3 ± 9%. The “Clearance from bloodstream and liver uptake of charged apo(a)/lp(a) particles” value ([3]; Lp(a) 50 μg charged with 5, 15, 50 μg, i.v. rats, FIG. 8) was “cleared and incorporated into the liver much faster”, the Biliary flow [4] was “unaltered” and the “Biliary secretion of bile acids” value [4] was “enhances”. For the same molecule, the “Biliary secretion of cholesterol” value [4] was “unaltered”.
